# Source: patent US6887879B2, “Pharmaceutical combination of antiviral agents” (priority 1999, dated 2005)
# Where two headings read alike, the source gives them in different places.
# How the values were obtained:
# [1] = Cytotoxicity, [3H]-thymidine uptake, HepG2; assay type: cell-based; settings: human, HepG2 cells
# Protocol: (§1) The cellular toxicity of the BCH compounds were assessed on various cells using [^3H]-thymidine uptake. The various cells, including Molt-4, HT1080, DU-145, HepG 2 and HSF, were plated at a concentration of 1-2×10^3 cells per well (96 well plates). However, PHA-stimulated PBMCs were cultured at a concentration of 4×10^4. After a 24 hr incubation period, 10-fold serial diluted compounds (10^−4 M to 10^−10 M) were added to the culture medium and the cells were further incubated for 72 hrs. [^3H]-thymidine was added during the final 18 hr incubation period. After incubation with the [^3H]-thymidine, the cells were washed once with PBS, treated with trypsin it the cells were adherent, and then resuspended in water (hypotonic lysing of cells) The cellular extract was applied directly to a Tomtec Harvester 96. Using this instrument the extracted DNA is adsorbed onto filters, washed and the incorporated [^3H]-thymidine is then counted.
# [2] = Cytotoxicity, [3H]-thymidine uptake, HT-1080; assay type: cell-based; settings: human, HT-1080 cells
# Protocol: as §1
# [3] = Cytotoxicity, [3H]-thymidine uptake, DU145; assay type: cell-based; settings: human, DU145 cells
# Protocol: as §1
# [4] = Cytotoxicity, [3H]-thymidine uptake, HSF; assay type: cell-based; settings: human, human skin fibroblasts (HSF)
# Protocol: as §1
# [5] = Cytotoxicity, [3H]-thymidine uptake, Molt-4; assay type: cell-based; settings: human, Molt-4 cells
# Protocol: as §1
# HIV-1IIIB = assay: Anti-HIV-1 antiviral assay, laboratory strain HIV-1IIIB, RT activity in culture supernatants
# Protocol: Most experiments were performed with a laboratory strain HIV-1III. […] The cells were incubated with virus using the indicated multiplicity of infection (MOI) for 2-3 hrs. The MOI used for each experiment was dependent upon the cell line and virus strain used, and was generally in the range of 0.005 to 0.5. For example, in assays performed using the established cell line MT-2, HIV-1IIIB at an MOI of 0.005 was used to infect cells. The unbound virus was then removed by washing the cells, followed by plating the cells into a 96-well plate. The infected cells were cultured in the presence of a serial concentrations of the test compound for 5-7 days. The anti-HIV-1 efficacy was determined by testing for HIV-1 RT activity in the cell culture supernatants. All assays were performed in duplicate and at least two independent experiments were performed. […] The susceptibilities of the HIV-1 variants to antiretroviral agents are expressed as the mean of the EC50 determinations.
# [6] = Cytotoxicity, WST-1 cell viability assay; assay type: cell-based, human; settings: human, CBMCs, MT-2, H9, Jurkat and U937 cells; WST-1 cell viability assay
# Protocol: The cellular toxicity of the compounds was also tested by WST-1 staining through assessing proliferation of MT-2, H9, Jurkat, U937, and CBMCs. The established cell lines were cultured in RPMI medium in 96-well plates at a density of 5×10^4 cells/well while CBMCs were plated at a concentration of 0.5×10^6/well. A 10-fold serial diluted (10^−4−10^−7 M) compound was added at day zero. At day 4, the cells were passaged by changing half medium containing appropriately diluted compound. The cell activities were assessed at day 7 using the WST-1 reagent (Boehringer Mannheim) following the protocol provided by the supplier.
# wt HIV-1 RT [7] = target: T1, wt HIV-1 RT (Human immunodeficiency virus type 1 group M subtype B, UniProt P04585); assay: Chain elongation/termination assay; assay type: biochemical; settings: for chain termination / full-length products, in words: HIV-PBS template, dPR primer, raising inhibitor concentration
# T1 construct: Wild type (wt) version of recombinant HIV-1 RT were expressed with a histidine tag; histidine tag; made in house; host or cells: E. coli
# Protocol: RT inhibition assay. The inhibition of HIV-1 RT RNA dependent DNA polymerase activity of DXG-TP was assessed under steady-state enzymatic kinetics by employing homopolymeric RNA templates/DNA primers (T/P) and a heteropolymeric RNA template/DNA primer. The heteropolymeric RNA template contains the HIV-1 primer binding sequence, US and R regions (designated as HIV-PBS). […] The oligodeoxynucleotide primer (dPR) is an 18-mer (5′-[…]-3′) which is complementary to the HIV-1 primer binding sequence. […] Inhibition of dNTP incorporation/chain termination. […] HIV-PBS RNA template and dPR DNA primer were used in this system. The RT reactions were performed in […] containing 50 mM Tris (pH 7.8), 75 mM KCl, 10 mM MgCl2, 100 μM of dNTPs. […] The reactions were allowed to proceed at 37° C. for 60 min in the presence or absence of inhibitors. The transcribed DNA products were separated on a 5% denaturing polyacrylamide gel and visualized by exposure to X-ray film.
# The chain elongation/termination assay provides a method to directly visualize the products of incorporation of dideoxynucleotide monophosphates into nascent DNA by monitoring the reaction products using polyacrylamide gel electrophoresis. The experiment was performed using wt HIV-1 RT, and HIV-PBS heteropolymeric template, and [^32p]ATP labeled dPR primer in the presence of various concentrations of RT inhibitor. […] As comparison, NNRTI nevirapine was also used in the assay.
# wt HIV-1 RT [8] = target: T1, wt HIV-1 RT; assay: RT inhibition assay, RNA dependent DNA polymerase activity; assay type: biochemical
# Protocol: Wild type (wt) version of recombinant HIV-1 RT were expressed with a histidine tag in an E. coli protein expression system.
# RT inhibition assay. The inhibition of HIV-1 RT RNA dependent DNA polymerase activity of DXG-TP was assessed under steady-state enzymatic kinetics by employing homopolymeric RNA templates/DNA primers (T/P) and a heteropolymeric RNA template/DNA primer. The heteropolymeric RNA template contains the HIV-1 primer binding sequence, US and R regions (designated as HIV-PBS). […] The oligodeoxynucleotide primer (dPR) is an 18-mer (5′-[…]-3′) which is complementary to the HIV-1 primer binding sequence. […] The reverse transcription reaction contained final concentrations of 50 mM Tris-HCl, pH 7.8, 60 mM KCl, 10 mM MgCl2, 0.1 U/ml homopolymeric T/P and 5 μM [^3H]dNTP substrate or 25 nM HIV-PBS/dPR and 5 μM each of dTTP, dCTP, dGTP and [-^32P]dATP in […]. […] Inhibition of dNTP incorporation/chain termination. The effect of DXG-TP on RT activity was also assessed using the chain termination/dNTP incorporation assay in which inhibition of nascent DNA synthesis (chain termination) was monitored based upon cDNA synthesis as previously described (Arts et al., 1993; J. Biol. Hem. 269:14672-14680 and Gu et al., 1995, Proc. Natl. Acad. Sci. USA 92:2760-2764). HIV-PBS RNA template and dPR DNA primer were used in this system. The RT reactions were performed in […] containing 50 mM Tris (pH 7.8), 75 mM KCl, 10 mM MgCl2, 100 μM of dNTPs. The HIV-PBS RNA template (50 nM) and [−^32P]-ATP labeled oligodeoxynucleotide primer (125 nM) were included in the reaction. The mixture was first denatured at 85° C. for 2 minutes, then cooled to 55° C. for 8 min, and finally cooled to 37° C. at which time recombinant HIV RT was added (42.5 nM). The reactions were allowed to proceed at 37° C. for 60 min in the presence or absence of inhibitors. The transcribed DNA products were separated on a 5% denaturing polyacrylamide gel and visualized by exposure to X-ray film.
# [9] = Cytotoxicity, [3H]-thymidine uptake, PBMC; assay type: cell-based; settings: human, PHA-stimulated PBMCs
# Protocol: as §1
# recombinant HXB2-D 74V = assay: microbe, parasite or virus in culture; assay type: cell-based, HIV-1; settings: Human immunodeficiency virus 1, HXB2, read-out: EC50 in CBMCs
# Protocol: (§2) HIV-1IIIB laboratory strain and HXB2-D recombinant of HIV-1 were kindly supplied by R. C. Gallo (Institute of Human Virology, Baltimore, Md.). […] The recombinant viruses were generated by transfection of proviral DNA into MT-4 cells with Lipofectamine using the protocol recommended by the manufacturer .(Gibco BRL, Montreal, Canada). […] Stock viruses were prepared from clarified culture supernatants by centrifugation and stored at −70° C. The viruses were titrated by limited dilution with a 4-fold serial dilution.
# [10] = test system: recombinant HXB2-D 41L/70R/215Y/219Q; assay: microbe, parasite or virus in culture; assay type: cell-based, HIV-1; settings: Human immunodeficiency virus 1, HXB2, read-out: EC50 in CBMCs
# Protocol: as §2
# recombinant HXB2-D 65R = assay: microbe, parasite or virus in culture; assay type: cell-based, HIV-1; settings: Human immunodeficiency virus 1, HXB2, read-out: EC50 in CBMCs
# Protocol: as §2
# recombinant HXB2-D 184V = assay: microbe, parasite or virus in culture; assay type: cell-based, HIV-1; settings: Human immunodeficiency virus 1, HXB2, read-out: EC50 in CBMCs
# Protocol: as §2
# [11] = test system: recombinant HXB2-D 41L/215Y/184V; assay: microbe, parasite or virus in culture; assay type: cell-based, HIV-1; settings: Human immunodeficiency virus 1, HXB2, read-out: EC50 in CBMCs
# Protocol: as §2
# [12] = test system: HIV-1 clinical isolate 4526; assay: Antiviral assay, HIV-1 clinical isolate 4526, CBMCs; assay type: cell-based; settings: Human immunodeficiency virus 1, naive
# Protocol: as §2
# (§3) The population of HIV-1 in infected individual is quasispecies and the sensitivity of these different viruses found in clinical isolates to antiviral chemotherapy might be quite variable. In addition, HIV-1 isolates obtained from patients receiving long-term antiretroviral therapy might behave differently from cloned virus containing genetically engineered mutations in the RT gene. For these reasons, clinical isolates of HIV-1 from antiviral naive and drug-treated patients were assayed in PHA-stimulated CBMCs for their sensitivity to DXG and DAPD accompanied with approved antiretroviral agents. The genotype of the HIV-1 clinical isolates were determined as described above.
# [13] = test system: recombinant HXB2-D 10R/46I/63P/82T/84V; assay: microbe, parasite or virus in culture; assay type: cell-based, HIV-1; settings: Human immunodeficiency virus 1, HXB2, read-out: EC50 in CBMCs
# Protocol: as §2
# [14] = test system: HIV-1 clinical isolate 4833; assay: microbe, parasite or virus in culture; assay type: cell-based
# Protocol: as §2, §3
# [15] = Human immunodeficiency virus 1, Jurkat, read-out: EC50, mean values ± SD
# [16] = Human immunodeficiency virus 1, MT2, read-out: EC50, mean values ± SD
# [17] = Human immunodeficiency virus 1, MT4, read-out: EC50, mean values ± SD
# [18] = Human immunodeficiency virus 1, read-out: EC50, mean values ± SD
# [19] = template/primer HIV-PBS/dPR, substrate dNTPs, each 5 μM
# [20] = template/primer poly(rA).oligo(dT)12-18, substrate dTTP
# [21] = template/primer poly(rC).oligo(dG)12-15, substrate dGTP
molecule,measurement,setting,value
"Cc1cn([C@H]2C[C@H](N=[N+]=[N-])[C@@H](CO)O2)c(=O)[nH]c1=O [AZT, zidovudine, reference compound]",CC50 at 72 h,[1],3000 nM
same,CC50 at 72 h,[2],5000 nM
same,CC50 at 72 h,[3],> 10000 nM
same,CC50 at 72 h,[4],> 10000 nM
same,CC50 at 72 h,[5],3000 nM
same,EC50,HIV-1IIIB; [15],11 ± 7 nM
same,EC50,HIV-1IIIB; [16],7.6 ± 4.4 nM
same,EC50,HIV-1IIIB; [17],8 ± 5 nM
same,EC50,"HIV-1IIIB; Human immunodeficiency virus 1, U-937",25 nM
same,EC50,HIV-1IIIB; [18],5.1 ± 3 nM
same,CC50 at 7 days,[6],74000 nM
Cc1cn([C@H]2C[C@H](N=[N+]=[N-])[C@@H](COP(=O)(O)OP(=O)(O)OP(=O)(O)O)O2)c(=O)[nH]c1=O [AZT-TP],"chain termination / full-length products, in words",wt HIV-1 RT [7],caused increasing chain termination but decreasing full-length products
"Nc1nc2c(ncn2C2COC(COP(=O)(O)OP(=O)(O)OP(=O)(O)O)O2)c(=O)[nH]1 (stereo not shown) [DXG-TP, DXG 5′-triphosphate]","chain termination / full-length products, in words",wt HIV-1 RT [7],caused increasing chain termination but decreasing full-length products
same,"inhibitory effect on RT activity by band intensity, compared, in words",wt HIV-1 RT [7]; cell-free assay,"the same as ddGTP and AZT-TP at the same concentrations, but higher than lamivudine-TP"
same,"mode of RT inhibition, in words",wt HIV-1 RT [8],competition with natural substrate
same,IC50,wt HIV-1 RT [8]; [19],62 ± 7 nM
same,IC50,wt HIV-1 RT [8]; [20],> 10000 nM
same,IC50,wt HIV-1 RT [8]; [21],12 nM
"Nc1ccn([C@H]2CC[C@@H](CO)O2)c(=O)n1 [ddC, 2′,3′-dideoxycytidine]",CC50 at 72 h,[1],7000 nM
same,CC50 at 72 h,[2],2000 nM
same,CC50 at 72 h,[3],5000 nM
same,CC50 at 72 h,[5],2000 nM
same,CC50 at 72 h,[9],32500 nM
same,CC50 at 7 days,[6],29000 nM
"Nc1nc2c(ncn2[C@H]2CC[C@@H](COP(=O)(O)OP(=O)(O)OP(=O)(O)O)O2)c(=O)[nH]1 [ddGTP, dideoxyguanosine triphosphate, reference compound]",IC50,wt HIV-1 RT [8]; [19],74 ± 8 nM
same,IC50,wt HIV-1 RT [8]; [21],11 ± 0.7 nM
"Cc1cn([C@H]2CC[C@@H](COP(=O)(O)OP(=O)(O)OP(=O)(O)O)O2)c(=O)[nH]c1=O [ddTTP, reference compound]",IC50,wt HIV-1 RT [8]; [20],24 ± 3 nM
"Nc1ccn([C@@H]2CS[C@H](CO)O2)c(=O)n1 [lamivudine, reference compound]",CC50 at 72 h,[1],350000 nM
same,CC50 at 72 h,[2],> 500000 nM
same,CC50 at 72 h,[3],> 500000 nM
same,CC50 at 72 h,[4],400000 nM
same,EC50,HIV-1IIIB; [15],530 ± 20 nM
same,EC50,HIV-1IIIB; [16],91 ± 80 nM
same,EC50,HIV-1IIIB; [17],56 ± 14 nM
same,EC50,HIV-1IIIB; [18],23 ± 11 nM
same,EC50,recombinant HXB2-D 74V,120 ± 70 nM
same,EC50,[10],62 ± 20 nM
same,EC50,recombinant HXB2-D 65R,360 ± 170 nM
same,EC50,recombinant HXB2-D 184V,> 50000 nM
same,EC50,[11],> 50000 nM
Nc1ccn([C@@H]2CS[C@H](COP(=O)(O)OP(=O)(O)OP(=O)(O)O)O2)c(=O)n1 [lamivudine-TP],"chain termination / full-length products, in words",wt HIV-1 RT [7],caused increasing chain termination but decreasing full-length products
"CC(C)(C)NC(=O)[C@@H]1C[C@@H]2CCCC[C@@H]2CN1C[C@@H](O)[C@H](Cc1ccccc1)NC(=O)[C@H](CC(N)=O)NC(=O)c1ccc2ccccc2n1 [saquinavir, reference compound]",EC50,[12],6.3 nM
same,EC50,[13],75 nM
same,decreased sensitivity compared to the baseline isolate 4526,[14],about 20 fold
same,EC50,"[14]; Human immunodeficiency virus 1, therapy Saquinavir (48 weeks), read-out: EC50 in CBMCs",110 nM
"(+) enantiomer of -D-1′,3′-dioxolane guanosine",EC50,"HIV-1IIIB; read-out: EC50, mean values ± SD, MT-2 cells, HIV-1IIIB",700 nM
